Laboratory results as given in patent US11214594B2, “Antimicrobial peptide having synergistic antibacterial effect with antibiotics on multidrug resistant bacteria, and use thereof” (priority 2016, dated 2022).
Read-outs that look alike come from different tables or passages of the source. Where a SMILES comes first, the peptide text is derived from it.

Tests used:
[1] = tested on: S. epidermidis; assay: microbe, parasite or virus in culture; assay type: cell-based, Staphylococcus epidermidis
Outline: (§1)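 MIC read-out = lowest peptide level with no bacterial proliferation. Strains diluted in MH medium to 2×10^6 CFU; peptide twofold serial dilutions in MH added 1:1 in microtiter wells.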

[2] = tested on: MDRST 8009; assay type: cell-based, Salmonella typhimurium; conditions: agent alone
Outline: as §1

[3] = tested on: B. subtilis; assay: microbe, parasite or virus in culture; assay type: cell-based, Bacillus subtilis
Outline: as §1

[4] = tested on: MDRAB 12035; assay: MIC of antibiotic during combined treatment with antimicrobial peptide; assay type: cell-based, Acinetobacter baumannii
Outline: (§2)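 Strains in MH medium at 2×10^6 CFU/ml were mixed with peptide diluted stepwise (2:1) from its MIC, then antibiotic dilutions in MH medium were added to give the antibiotic MIC. The reversed set-up, peptide titrated against fixed antibiotic, gave the peptide MIC.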

[5] = tested on: E. coli; assay type: cell-based, Escherichia coli; conditions: E. coli
Outline: as §2

[6] = tested on: MDREC 1229; assay type: cell-based, Escherichia coli
Outline: as §2

[7] = tested on: MDRAB 12035; assay: MIC of antimicrobial peptide during combined treatment with antibiotic; assay type: cell-based, Acinetobacter baumannii
Outline: as §2

[8] = tested on: A. baumannii; assay: as above; assay type: cell-based, Acinetobacter baumannii
Outline: as §2

[9] = tested on: E. coli; assay: MIC of antibiotic during combined treatment with antimicrobial peptide; assay type: cell-based, Escherichia coli; conditions: for Antibiotic MIC, Erythromycin / Antibiotic MIC, Linezolid / Antibiotic MIC, Vancomycin: E. coli
Outline: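 Read-out is the MIC of each combined solution, obtained from MH-medium dilutions of antibiotic added well by well, with a reversed-condition run as well.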

[10] = tested on: MDREC 1238; assay type: cell-based, Escherichia coli
Outline: as §1

[11] = tested on: P. aeruginosa; assay: microbe, parasite or virus in culture; assay type: cell-based, Pseudomonas aeruginosa
Outline: as §1

[12] = tested on: E. coli; assay: microbe, parasite or virus in culture; assay type: cell-based, Escherichia coli
Outline: as §1

[13] = tested on: MDREC 1229; assay: microbe, parasite or virus in culture; assay type: cell-based, Escherichia coli
Outline: as §1

[14] = tested on: MDRST 8007; assay: Minimal inhibitory concentration (MIC), single agent; assay type: cell-based, Salmonella typhimurium; conditions: agent alone
Outline: as §1

[15] = tested on: MRSA 3114; assay type: cell-based, Staphylococcus aureus; conditions: 3114
Outline: as §1

[16] = tested on: MRSA 3126; assay type: cell-based, Staphylococcus aureus; conditions: 3126
Outline: as §1

[17] = tested on: MDRPA 2002; assay type: cell-based, Pseudomonas aeruginosa
Outline: as §1

[18] = tested on: MDRPA 2003; assay type: cell-based, Pseudomonas aeruginosa
Outline: as §1

[19] = tested on: MDRAB 12036; assay type: cell-based, Acinetobacter baumannii
Outline: as §1

[20] = peptide treatment concentration 1 μg/ml
[21] = peptide treatment concentration 2 μg/ml
[22] = peptide treatment concentration 4 μg/ml
[23] = peptide treatment concentration 6 μg/ml
[24] = peptide treatment concentration 8 μg/ml
[25] = peptide treatment concentration 16 μg/ml
[26] = peptide treatment concentration 32 μg/ml
[27] = peptide treatment concentration 64 μg/ml
[28] = with Erythromycin […] (Conc./MIC 1)
[29] = erythromycin 4 μg/ml (Conc./MIC 1/8)
[30] = erythromycin 8 μg/ml (Conc./MIC 1/4)
[31] = erythromycin 16 μg/ml (Conc./MIC 1/2)
[32] = erythromycin 32 μg/ml (Conc./MIC 1)
[33] = vancomycin 512 μg/ml (Conc./MIC 1/2)
[34] = vancomycin 1024 μg/ml (Conc./MIC 1)

CC[C@H](C)[C@H](NC(=O)[C@H](CCCCN)NC(=O)[C@H](Cc1c[nH]c2ccccc12)NC(=O)[C@@H](N)CCCNC(=N)N)C(=O)N[C@@H](Cc1ccccc1)C(=O)N[C@@H](CCCCN)C(=O)N[C@@H](CCCCN)C(=O)N[C@H](C(=O)N1CCC[C@H]1C(=O)N[C@@H](CCCCN)C(=O)N[C@@H](CC(C)C)C(=O)N[C@@H](CC(C)C)C(=O)N[C@@H](Cc1c[nH]cn1)C(=O)N[C@@H](CO)C(=O)N[C@@H](CC(C)C)C(=O)N[C@@H](CCCCN)C(=O)N[C@@H](CCCCN)C(=O)N[C@@H](Cc1ccccc1)C(N)=O)[C@@H](C)CC [PapMA-8, RWK IFK KIP KLL HSL KKF-NH2] (H-RWKIFKKIPKLLHSLKKF-NH2; N-terminus assumed)
4 µg/mL: Erythromycin MIC during combined treatment with peptide [4, 24] | Linezolid MIC during combined treatment with peptide [4, 25] | Vancomycin MIC during combined treatment with peptide [4, 25] | Peptide MIC during treatment with erythromycin [7, 31] | Peptide MIC during treatment with linezolid ([7]; linezolid 64 μg/ml (Conc./MIC 1/8)) | Peptide MIC during treatment with vancomycin ([7]; vancomycin […] (Conc./MIC 1/8)) | Peptide MIC during treatment with antibiotic [8, 29] | Peptide MIC during treatment with antibiotic [8, 30] | Peptide MIC during treatment with antibiotic ([8]; linezolid 32 μg/ml (Conc./MIC 1/8)) | Peptide MIC during treatment with antibiotic ([8]; vancomycin […] (Conc./MIC 1/8)) | Antibiotic MIC, Erythromycin ([9]; erythromycin combined with peptide at 6 μg/ml)
64 µg/mL: Minimal inhibitory concentration MIC [2] | Linezolid MIC during combined treatment with peptide [4, 22] | Vancomycin MIC during combined treatment with peptide [4, 22] | Antibiotic MIC, Erythromycin ([9]; erythromycin combined with peptide at 2 μg/ml) | Antibiotic MIC, Vancomycin ([9]; vancomycin combined with peptide at 4 μg/ml) | Minimal inhibitory concentration MIC [10] | Minimal inhibitory concentration MIC [13] | Minimal inhibitory concentration MIC [14] | Minimal inhibitory concentration MIC [19]
higher level than the PapMA-1 peptide: Synergistic effect of antibacterial activity with existing antibiotics compared with PapMA-1 ([9]; E. coli and MDREC1229)
8 µg/mL: Erythromycin MIC during combined treatment with peptide [4, 23] | Vancomycin MIC during combined treatment with peptide [4, 24] | Peptide MIC during treatment with erythromycin [7, 29] | Peptide MIC during treatment with erythromycin [7, 30] | Antibiotic MIC, Erythromycin ([9]; erythromycin combined with peptide at 4 μg/ml) | Antibiotic MIC, Linezolid ([9]; linezolid combined with peptide at 8 μg/ml)
128 µg/mL: Antibiotic MIC, Erythromycin ([9]; erythromycin combined with peptide at 1 μg/ml) | Antibiotic MIC, Linezolid ([9]; linezolid combined with peptide at 4 μg/ml)
32 µg/mL: Erythromycin MIC during combined treatment with peptide [4, 20] | Erythromycin MIC during combined treatment with peptide [4, 21] | Linezolid MIC during combined treatment with peptide [4, 23] | Vancomycin MIC during combined treatment with peptide [4, 23] | Antibiotic MIC, Linezolid ([9]; linezolid combined with peptide at 6 μg/ml) | Antibiotic MIC, Vancomycin ([9]; vancomycin combined with peptide at 6 μg/ml) | Minimal inhibitory concentration MIC ([12]; 16 h)
0 µg/mL: Erythromycin MIC during combined treatment with peptide [4, 27] | Linezolid MIC during combined treatment with peptide [4, 27] | Vancomycin MIC during combined treatment with peptide [4, 27] | Peptide MIC [5, 28] | Peptide MIC ([5]; with Linezolid […] (Conc./MIC 1)) | Peptide MIC ([5]; with Vancomycin 1024 μg/ml (Conc./MIC 1)) | Peptide MIC [6, 28] | Peptide MIC ([6]; with Linezolid 512 μg/ml (Conc./MIC 1)) | Peptide MIC during treatment with erythromycin [7, 32] | Peptide MIC during treatment with linezolid ([7]; linezolid 512 μg/ml (Conc./MIC 1)) | Peptide MIC during treatment with antibiotic [8, 32] | Peptide MIC during treatment with antibiotic ([8]; linezolid […] (Conc./MIC 1)) | Peptide MIC during treatment with antibiotic [8, 34] | Antibiotic MIC, Erythromycin ([9]; erythromycin combined with peptide at 32 μg/ml) | Antibiotic MIC, Erythromycin ([9]; erythromycin combined with peptide at 64 μg/ml) | Antibiotic MIC, Linezolid ([9]; linezolid combined with peptide at 32 μg/ml) | Antibiotic MIC, Linezolid ([9]; linezolid combined with peptide at 64 μg/ml) | Antibiotic MIC, Vancomycin ([9]; vancomycin combined with peptide at 32 μg/ml) | Antibiotic MIC, Vancomycin ([9]; vancomycin combined with peptide at 64 μg/ml)
16 µg/mL: Erythromycin MIC during combined treatment with peptide [4, 22] | Linezolid MIC during combined treatment with peptide [4, 24] | Antibiotic MIC, Vancomycin ([9]; vancomycin combined with peptide at 8 μg/ml) | Minimal inhibitory concentration MIC [11] | Minimal inhibitory concentration MIC [17] | Minimal inhibitory concentration MIC [18]
significantly increased: Antibacterial activity (in words) ([11]; P. aeruginosa and S. typhimurium)
0.25 µg/mL: Antibiotic MIC, Erythromycin ([9]; erythromycin combined with peptide at 16 μg/ml)
at least twice as high: Antibacterial activity relative to PapMA-1 ([12]; E. coli)
0.5 µg/mL: Antibiotic MIC, Erythromycin ([9]; erythromycin combined with peptide at 8 μg/ml)
>128 µg/mL: Minimal inhibitory concentration MIC [1] | Minimal inhibitory concentration MIC [3] | Linezolid MIC during combined treatment with peptide [4, 20] | Vancomycin MIC during combined treatment with peptide [4, 20] | Linezolid MIC during combined treatment with peptide [4, 21] | Vancomycin MIC during combined treatment with peptide [4, 21] | Antibiotic MIC, Linezolid ([9]; linezolid combined with peptide at 1 μg/ml) | Antibiotic MIC, Linezolid ([9]; linezolid combined with peptide at 2 μg/ml) | Antibiotic MIC, Vancomycin ([9]; vancomycin combined with peptide at 1 μg/ml) | Antibiotic MIC, Vancomycin ([9]; vancomycin combined with peptide at 2 μg/ml) | Minimal inhibitory concentration MIC [15] | Minimal inhibitory concentration MIC [16]
1 µg/mL: Erythromycin MIC during combined treatment with peptide [4, 26] | Peptide MIC during treatment with linezolid ([7]; linezolid […] (Conc./MIC 1/2)) | Peptide MIC during treatment with vancomycin [7, 34] | Peptide MIC during treatment with antibiotic [8, 33] | Peptide MIC during treatment with antibiotic ([8]; vancomycin […] (Conc./MIC 1/4))
2 µg/mL: Erythromycin MIC during combined treatment with peptide [4, 25] | Linezolid MIC during combined treatment with peptide [4, 26] | Vancomycin MIC during combined treatment with peptide [4, 26] | Peptide MIC during treatment with linezolid ([7]; linezolid […] (Conc./MIC 1/4)) | Peptide MIC during treatment with vancomycin [7, 33] | Peptide MIC during treatment with vancomycin ([7]; vancomycin […] (Conc./MIC 1/4)) | Peptide MIC during treatment with antibiotic [8, 31] | Peptide MIC during treatment with antibiotic ([8]; linezolid 64 μg/ml (Conc./MIC 1/4)) | Peptide MIC during treatment with antibiotic ([8]; linezolid […] (Conc./MIC 1/2)) | Antibiotic MIC, Linezolid ([9]; linezolid combined with peptide at 16 μg/ml) | Antibiotic MIC, Vancomycin ([9]; vancomycin combined with peptide at 16 μg/ml)
